# Assay results published in paper PMC5813499 (Bioorganic & medicinal chemistry, 2017).
# Tests used:
# [1] = biological target: allosteric site of the mGluR5 receptor (Homo sapiens, UniProt P41594); test: PDSP binding at the allosteric site of the mGluR5 receptor; settings: binding affinity at allosteric site; type of constant not given
# [2] = biological target: L-type Voltage gated calcium Channel (VGCC) (Rattus norvegicus, UniProt P22002); test: PDSP binding at the L-type voltage gated calcium channel; settings: for VGCC (IC50, nM): PDSP screening
# L-type Voltage gated calcium Channel (VGCC), sequence (P22002 whole entry): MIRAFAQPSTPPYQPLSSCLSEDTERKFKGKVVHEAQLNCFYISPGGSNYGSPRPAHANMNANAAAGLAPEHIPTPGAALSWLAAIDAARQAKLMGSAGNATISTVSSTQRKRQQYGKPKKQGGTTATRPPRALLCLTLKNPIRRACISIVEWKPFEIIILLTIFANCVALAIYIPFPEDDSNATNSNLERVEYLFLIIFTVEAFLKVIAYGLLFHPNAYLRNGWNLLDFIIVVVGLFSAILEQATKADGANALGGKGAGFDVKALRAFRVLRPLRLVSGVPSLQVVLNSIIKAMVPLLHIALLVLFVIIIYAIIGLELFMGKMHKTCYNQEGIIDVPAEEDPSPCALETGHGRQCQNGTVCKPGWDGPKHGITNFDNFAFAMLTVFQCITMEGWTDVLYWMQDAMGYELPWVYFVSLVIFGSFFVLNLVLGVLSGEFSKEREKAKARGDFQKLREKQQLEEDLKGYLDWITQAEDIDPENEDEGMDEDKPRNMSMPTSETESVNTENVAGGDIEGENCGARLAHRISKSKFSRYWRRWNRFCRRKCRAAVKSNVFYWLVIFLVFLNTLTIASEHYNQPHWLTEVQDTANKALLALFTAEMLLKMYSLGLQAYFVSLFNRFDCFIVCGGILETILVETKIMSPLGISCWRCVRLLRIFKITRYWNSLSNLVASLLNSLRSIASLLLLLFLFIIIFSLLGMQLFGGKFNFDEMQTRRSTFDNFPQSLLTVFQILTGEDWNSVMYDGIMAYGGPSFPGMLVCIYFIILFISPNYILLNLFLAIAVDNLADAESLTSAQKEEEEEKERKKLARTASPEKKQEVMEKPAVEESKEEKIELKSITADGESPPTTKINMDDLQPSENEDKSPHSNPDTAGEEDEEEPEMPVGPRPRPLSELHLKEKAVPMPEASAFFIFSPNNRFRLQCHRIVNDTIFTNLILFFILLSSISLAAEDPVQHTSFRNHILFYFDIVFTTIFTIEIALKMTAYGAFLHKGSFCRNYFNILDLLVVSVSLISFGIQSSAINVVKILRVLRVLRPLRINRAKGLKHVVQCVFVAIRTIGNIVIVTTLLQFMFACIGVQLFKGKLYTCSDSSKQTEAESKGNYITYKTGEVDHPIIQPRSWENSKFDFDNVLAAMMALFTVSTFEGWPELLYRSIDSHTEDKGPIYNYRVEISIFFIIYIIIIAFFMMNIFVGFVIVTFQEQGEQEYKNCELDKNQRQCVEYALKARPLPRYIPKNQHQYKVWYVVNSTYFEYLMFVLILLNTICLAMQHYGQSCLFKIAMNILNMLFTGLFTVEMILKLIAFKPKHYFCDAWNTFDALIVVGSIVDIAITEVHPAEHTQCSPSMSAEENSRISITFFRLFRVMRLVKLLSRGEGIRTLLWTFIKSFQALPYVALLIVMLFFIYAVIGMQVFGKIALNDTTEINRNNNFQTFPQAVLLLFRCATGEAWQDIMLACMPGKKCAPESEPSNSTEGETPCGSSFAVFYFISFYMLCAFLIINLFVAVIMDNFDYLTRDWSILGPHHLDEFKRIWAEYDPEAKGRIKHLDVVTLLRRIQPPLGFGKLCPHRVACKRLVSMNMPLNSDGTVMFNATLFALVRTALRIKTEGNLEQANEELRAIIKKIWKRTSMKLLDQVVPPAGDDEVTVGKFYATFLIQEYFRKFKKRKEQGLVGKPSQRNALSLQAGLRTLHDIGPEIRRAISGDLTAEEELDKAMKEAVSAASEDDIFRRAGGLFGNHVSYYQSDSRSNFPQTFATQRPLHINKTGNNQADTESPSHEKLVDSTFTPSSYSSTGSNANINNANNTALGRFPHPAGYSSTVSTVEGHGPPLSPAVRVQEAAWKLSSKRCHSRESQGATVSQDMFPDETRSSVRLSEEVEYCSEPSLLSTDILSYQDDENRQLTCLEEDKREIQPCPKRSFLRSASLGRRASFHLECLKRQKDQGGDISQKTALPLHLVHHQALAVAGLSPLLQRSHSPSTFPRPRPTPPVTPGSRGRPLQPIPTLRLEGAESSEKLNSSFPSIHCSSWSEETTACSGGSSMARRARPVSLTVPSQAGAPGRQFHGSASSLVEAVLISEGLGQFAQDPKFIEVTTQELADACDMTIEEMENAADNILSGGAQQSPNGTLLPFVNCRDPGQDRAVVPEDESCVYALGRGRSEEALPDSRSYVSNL
# allosteric site of the mGluR5 receptor, sequence (P41594 21-1212): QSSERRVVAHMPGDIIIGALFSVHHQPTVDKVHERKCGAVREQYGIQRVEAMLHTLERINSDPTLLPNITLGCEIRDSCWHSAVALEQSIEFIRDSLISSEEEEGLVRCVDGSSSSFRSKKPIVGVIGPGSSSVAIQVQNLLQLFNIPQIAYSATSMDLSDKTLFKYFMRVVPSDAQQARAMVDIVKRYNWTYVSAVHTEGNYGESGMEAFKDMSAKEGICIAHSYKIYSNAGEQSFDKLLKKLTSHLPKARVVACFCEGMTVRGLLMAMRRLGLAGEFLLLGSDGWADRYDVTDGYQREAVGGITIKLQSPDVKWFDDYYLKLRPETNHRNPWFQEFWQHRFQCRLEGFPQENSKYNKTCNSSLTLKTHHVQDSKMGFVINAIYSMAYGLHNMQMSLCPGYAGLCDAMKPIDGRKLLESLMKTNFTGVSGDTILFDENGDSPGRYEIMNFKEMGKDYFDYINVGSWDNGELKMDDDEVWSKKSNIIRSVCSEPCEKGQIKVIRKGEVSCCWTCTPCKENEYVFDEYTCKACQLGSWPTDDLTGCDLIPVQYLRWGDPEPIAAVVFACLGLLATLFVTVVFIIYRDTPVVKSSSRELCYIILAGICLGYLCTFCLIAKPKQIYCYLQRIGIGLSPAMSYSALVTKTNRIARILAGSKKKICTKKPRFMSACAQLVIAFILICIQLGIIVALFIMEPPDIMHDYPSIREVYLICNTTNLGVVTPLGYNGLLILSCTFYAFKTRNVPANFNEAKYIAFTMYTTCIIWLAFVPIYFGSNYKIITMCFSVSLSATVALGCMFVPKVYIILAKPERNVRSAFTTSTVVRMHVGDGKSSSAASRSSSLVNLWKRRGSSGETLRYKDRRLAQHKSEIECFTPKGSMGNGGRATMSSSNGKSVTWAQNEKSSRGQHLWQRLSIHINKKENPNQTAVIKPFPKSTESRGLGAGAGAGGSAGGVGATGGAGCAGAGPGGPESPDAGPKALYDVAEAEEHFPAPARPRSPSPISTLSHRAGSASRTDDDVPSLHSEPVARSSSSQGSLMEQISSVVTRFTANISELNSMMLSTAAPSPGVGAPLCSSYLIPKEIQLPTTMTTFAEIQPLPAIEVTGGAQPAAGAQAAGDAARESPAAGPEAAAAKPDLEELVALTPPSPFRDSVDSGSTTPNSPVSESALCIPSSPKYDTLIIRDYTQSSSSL
Structure (SMILES),mGluR5 [1],mGluR5 (nM) [1],other results
"CCOC(=O)C1=C(C)NC(C)=C(C(=O)OCC)C1c1c(-c2ccccc2Br)noc1C [1b, 4-[3-(o-Bromo-phenyl)-5-methyl-isoxazol-4-yl]-2,6-dimethyl-1,4-dihydro-pyridine-3,5-dicarboxylic acid diethyl ester]",1.524 µM,,
"CCOC(=O)C1=C(C)NC(C)=C(C(=O)OCC)C1c1c(-c2cccc(Br)c2)noc1C [1c, 4-[3-(m-Bromo-phenyl)-5-methyl-isoxazol-4-yl]-2,6-dimethyl-1,4-dihydro-pyridine-3,5-dicarboxylic acid diethyl ester]",,">10,000 nM",
"CCOC(=O)C1=C(C)NC(C)=C(C(=O)OCC)C1c1c(-c2ccc(Br)cc2)noc1C [1d, 4-[3-(p-bromo-phenyl)-5-methyl-isoxazol-4-yl]-2,6-dimethyl-1,4-dihydro-pyridine-3,5-dicarboxylic acid diethyl ester]",,">10,000 nM",VGCC potency ratio of 1d versus o-Br 1b ([2]; fold more potent than 1b): over 25 times
"CCOC(=O)C1=C(C)NC(C)=C(C(=O)OCc2cn(CCOCCOCCOCCOCCOCCn3cc(COC(=O)C4=C(C)NC(C)=C(C(=O)OCC)C4c4c(-c5ccccc5)noc4C)nn3)nn2)C1c1c(-c2ccccc2)noc1C (stereo not shown) [4a, 3-(1-{17-[4-({[5-(Ethoxycarbonyl)-2,6-dimethyl-4-(5-methyl-3-phenyl-1,2-oxazol-4-yl)-1,4-dihydropyridin-3-yl]carbonyloxy}methyl)-1H-1,2,3-triazol-1-yl]-3,6,9,12,15-pentaoxaheptadecan-1-yl}-1H-1,2,3-triazol-4-yl)methyl 5-ethyl 2,6-dimethyl-4-(5-methyl-3-phenyl-1,2-oxazol-4-yl)-1,4-dihydropyridine-3,5-dicarboxylate]",,">10,000 nM",
"CCOC(=O)C1=C(C)NC(C)=C(C(=O)OCc2cn(CCOCCOCCOCCOCCOCCn3cc(COC(=O)C4=C(C)NC(C)=C(C(=O)OCC)C4c4c(-c5ccccc5Br)noc4C)nn3)nn2)C1c1c(-c2ccccc2Br)noc1C (stereo not shown) [4b, 3-[1-(17-{4-[({4-[3-(o-Bromophenyl)-5-methyl-1,2-oxazol-4-yl]-5-(ethoxycarbonyl)-2,6-dimethyl-1,4-dihydropyridin-3-yl}carbonyloxy)methyl]-1H-1,2,3-triazol-1-yl}-3,6,9,12,15-pentaoxaheptadecan-1-yl)-1H-1,2,3-triazol-4-yl]methyl 5-ethyl 4-[3-(o-bromophenyl)-5-methyl-1,2-oxazol-4-yl]-2,6-dimethyl-1,4-dihydropyridine-3,5-dicarboxylate]",4.858 µM,,"VGCC (IC50, nM) [2]: essentially abolished"
"CCOC(=O)C1=C(C)NC(C)=C(C(=O)OCc2cn(CCOCCOCCOCCOCCOCCn3cc(COC(=O)C4=C(C)NC(C)=C(C(=O)OCC)C4c4c(-c5cccc(Br)c5)noc4C)nn3)nn2)C1c1c(-c2cccc(Br)c2)noc1C (stereo not shown) [4c, 3-[1-(17-{4-[({4-[3-(m-bromophenyl)-5-methyl-1,2-oxazol-4-yl]-5-(ethoxycarbonyl)-2,6-dimethyl-1,4-dihydropyridin-3-yl}carbonyloxy)methyl]-1H-1,2,3-triazol-1-yl}-3,6,9,12,15-pentaoxaheptadecan-1-yl)-1H-1,2,3-triazol-4-yl]methyl 5-ethyl 4-[3-(m-bromophenyl)-5-methyl-1,2-oxazol-4-yl]-2,6-dimethyl-1,4-dihydropyridine-3,5-dicarboxylate]",8.638 µM,,
"CCOC(=O)C1=C(C)NC(C)=C(C(=O)OCc2cn(CCc3ccccc3)nn2)C1c1c(-c2ccc(Br)cc2)noc1C (stereo not shown) [compound 5, 4-[3-(p-Bromo-phenyl)-5-methyl-isoxazol-4-yl]-2,6-dimethyl-1,4-dihydro-pyridine 3,5-dicarboxylic acid 3-ethyl ester 5-(1-phenethyl-1H-[1,2,3]triazol-4-ylmethyl) ester]",1.972 µM,,
"CCOC(=O)c1c(C)nc(C)c(C(=O)OCC)c1-c1c(-c2ccccc2)noc1C [compound 6, 2,6-dimethyl-4-(5-methyl-3-phenyl-isoxazol-4-yl)-pyridine-3,5-dicarboxylic acid diethyl ester]",,,"VGCC (IC50, nM) [2]: essentially bereft of activity"
